Results on 81 molecules are retold here after PMC12040169 (PLOS Biology, 2025).

The nature of one series: in vitro. The note with it: human, hela cells, % viability.
In the case of `COc1cc(CNc2ncc(-c3ccc(N4CCOCC4)cc3)n3ccnc23)cc(OC)c1OC` [CBK091219], the viability at 28.5 h, 10 µM turned out to be 100%. Same read-out and setting: to `c1coc(CNc2ncc(-c3ccc(N4CCOCC4)cc3)n3ccnc23)c1` [CBK091220] belongs 102%. For the molecule `CN(C)c1cccc(Nc2ncc(-c3ccc(N4CCOCC4)cc3)n3ccnc23)c1` [CBK091222], the viability at 28.5 h, 10 µM was determined as 94.5%. Same read-out and setting: to `O=C(c1ccco1)N1CCN(c2ncc(-c3ccc(N4CCOCC4)cc3)n3ccnc23)CC1` [CBK091225] belongs 92.6%; to `Clc1ccc(CNc2ncc(-c3ccc(N4CCOCC4)cc3)n3ccnc23)cc1Cl` [CBK091229], 84.3%. Still for that read-out and setting: to `CC(=O)c1ccc(-c2cnc(Nc3ccc(N4CCOCC4)cc3)c3nccn23)s1` [CBK091231] belongs 95.3%; to `COc1ccc(-c2cnc(Nc3ccc(N4CCOCC4)cc3)c3nccn23)cn1` [CBK091238], 92%; to `CCCC/C=C/c1cnc(Nc2ccc(N3CCOCC3)cc2)c2nccn12` [CBK091239], 91.3%. Still for that read-out and setting: to `COc1ccc(NC(=O)c2ccc(-c3cnc(Nc4ccc(N5CCOCC5)cc4)c4nccn34)cc2)cc1` [CBK091240] belongs 96.7%; to `CCCC/C=C/c1cnc(N2CCOCC2)c2nccn12` [CBK091256], 102%. As to `O=C(O)/C=C/c1cccc(-c2cnc(N3CCOCC3)c3nccn23)c1` [CBK091263], the viability at 28.5 h, 10 µM came to 104%.

For the molecule `OCc1ccccc1-c1cnc(N2CCOCC2)c2nccn12` [CBK091265], the viability at 28.5 h, 10 µM turned out to be 110%. Same read-out and setting: to `c1cc(-c2cnc(N3CCOCC3)c3nccn23)c2cccnc2c1` [CBK091270] belongs 93.6%; to `COc1ccc(-c2cnc(N3CCOCC3)c3nccn23)cc1` [CBK091285], 87.2%. Same read-out and setting: to `c1cn2c(-c3ccoc3)cnc(N3CCOCC3)c2n1` [CBK091292] belongs 88.7%; to `CC(=O)NCCCCCC(=O)N1CCN(c2ccc(C(F)(F)F)cc2)CC1` [CBK091312], 92.8%.

With `COc1ccccc1C1OC(=O)CC1C(=O)N1CCN(c2ccc(C(F)(F)F)cc2)CC1` (stereo not drawn) [CBK091313], the viability at 28.5 h, 10 µM was 111%. The same measure, in the same setting: to `Cc1ccc(S(=O)(=O)NCC(=O)N2CCN(c3ccc(Cl)cc3)CC2)cc1` [CBK091315] belongs 93.3%; to `COc1ccccc1C1OC(=O)CC1C(=O)N1CCN(c2ccc(Cl)cc2)CC1` (stereo not drawn) [CBK091332], 86.2%; to `CC(=O)N[C@H](Cc1c[nH]c2ccccc12)C(=O)N1CCN(c2ccc(C)cc2)CC1` [CBK091333], 91.1%. Same read-out and setting: to `CCC(C)(C)C(=O)Nc1ccc(Cl)nc1` [CBK091334] belongs 96.4%; to `O=C(Nc1ccc(Cl)nc1)C(F)(F)F` [CBK091339], 101%. On to `Cc1ccccc1C(=O)NCC(=O)Nc1ccc(Br)c2ccccc12` [CBK091343], for which the viability at 28.5 h, 10 µM was 98%.

With `O=C(CC1CCCCC1)Nc1ccc(Cl)nc1` [CBK091349], the viability at 28.5 h, 10 µM turned out to be 83.5%. Still for that read-out and setting: to `COC(C)(C(=O)Nc1ccc(Cl)nc1)c1cccc2ccccc12` (stereo not drawn) [CBK091350] belongs 102%; to `Cc1ccc(S(=O)(=O)NCC(=O)Nc2ccc(Cl)nc2)cc1` [CBK091355], 96.1%.

`COc1ccc(C(N)C2(O)CCN(Cc3ccccc3)CC2)cc1` (stereo not drawn) [CBK091386]: the viability at 28.5 h, 10 µM came to 107%. Regarding `COc1ccc(N2CCN(C(=O)CCC(=O)c3cccs3)CC2)cc1` [CBK091413], the viability at 28.5 h, 10 µM was 94.3%. As to `CCCCC(CC)C(=O)N1CCN(c2ccc(OC)cc2)CC1` (stereo not drawn) [CBK091414], the viability at 28.5 h, 10 µM worked out at 99.9%. For the molecule `COc1ccc(N2CCN(C(=O)CCC(F)(F)F)CC2)cc1` [CBK091419], the viability at 28.5 h, 10 µM was 100%.

For the molecule `CC(C)Nc1cncc(Sc2cccc(N)c2)n1` [CBK091434], the viability at 28.5 h, 10 µM amounted to 108%. `CC(C)Nc1cncc(Sc2ccccc2O)n1` [CBK091438]: the viability at 28.5 h, 10 µM came out at 88%.

Turning to `COc1ccccc1N1CCN(C(=O)CCC(=O)c2cccs2)CC1` [CBK091498], the viability at 28.5 h, 10 µM stood at 109%.

On to `NC(=O)CN1CCCN(c2cc(OCCc3c[nH]c4ccccc34)ncn2)CC1` [CBK091546], for which the viability at 28.5 h, 10 µM amounted to 96.6%. `Clc1ccc(COc2ccnc(N3CCCNCC3)n2)cc1Cl` [CBK091550]: the viability at 28.5 h, 10 µM came out at 90%. The same measure, in the same setting: to `O=C(c1ccccc1)c1ccc2[nH]nnc2c1` [CBK091608] belongs 94.2%; to `S=C(NCc1ccccc1)Nc1ccccc1` [CBK091617], 105%. `COc1ccc2[nH]c(SCC(=O)O)nc2c1` [CBK091620]: the viability at 28.5 h, 10 µM was determined as 91%.

In the case of `O=C1CC(c2cccs2)Sc2nc3ccccc3n21` (stereo not drawn) [CBK091627], the viability at 28.5 h, 10 µM was 110%. Same read-out and setting: to `COCCNC(=O)c1c(NC(=O)c2ccccc2C)sc2c1CCCC2` [CBK091645] belongs 83.9%; to `CC1=C(C(=O)OCC(C)C)C(c2ccc(C)cc2)N2C(=O)C(C)SC2=N1` (stereo not drawn) [CBK091646], 92.8%; to `CCCNc1nc(Cl)nc(NC(C)(C)C)n1` [CBK091674], 86.3%. The same measure, in the same setting: to `Cc1ccc(CNS(=O)(=O)N(C)C)cc1` [CBK091778] belongs 80.9%; to `O=C(c1cccc(C(=O)N(Cc2ccccc2)c2ccccn2)c1)N(Cc1ccccc1)c1ccccn1` [CBK091794], 111%; to `CN(CC(=O)N1CCCCCC1)S(=O)(=O)c1cc(Cl)ccc1Cl` [CBK091841], 92.4%. The same measure, in the same setting: to `COc1ccc(-c2cc(=O)[nH]c(SCC(=O)Nc3ccc(C)cc3)n2)cc1` [CBK091867] belongs 95.8%. On to `CSc1nc2sc3c(c2c(=O)n1-c1ccccc1C)CC(C)(C)OC3` [CBK091875], for which the viability at 28.5 h, 10 µM amounted to 99.1%. Still for that read-out and setting: to `NC(=O)C1(N2CCCCC2)CCN(C(=S)NC2CCCC2)CC1` [CBK091884] belongs 88.1%; to `CCOC(=O)C1=C(C)N(CC)C(=O)NC1c1cc(OC)c(OC)c(OC)c1` (stereo not drawn) [CBK091912], 98.3%.

`CCOc1ccccc1N1CCN(C(=O)c2cc(-c3ccccc3C)nc3ccccc23)CC1` [CBK091950]: the viability at 28.5 h, 10 µM was found to be 104%. On the same count and under the same terms, to `O=C(NC(=S)Nc1ccc(Br)cc1)c1ccccc1` [CBK092022] belongs 83.5%; to `O=C(NC(=S)Nc1ccccc1)c1cncc(Br)c1` [CBK092040], 91.2%. The same measure, in the same setting: to `CCOc1cccc(C(=O)NC(=S)Nc2nc(C)c(C(=O)OC)s2)c1` [CBK092056] belongs 93.6%; to `O=C(Nc1ccccc1Br)C1CCCC1` [CBK092059], 111%; to `Cc1cc(C)nc(SCC(=O)c2ccc(F)cc2)n1` [CBK092116], 82.1%.

`O=c1c2ccccc2[nH]c(=S)n1CCCN1CCOCC1` [CBK092141]: the viability at 28.5 h, 10 µM stood at 88.1%. On the same count and under the same terms, to `c1ccc(OCCCCN2CCCC23CCc2[nH]c4ccccc4c2C3)cc1` (stereo not drawn) [CBK092200T] belongs 89.8%; to `CN(C)CC(=O)N1CN(C(=O)c2cccc(Br)c2)C(C)(C)C1` [CBK092206C], 97.4%; to `COc1cc(OC)nc(Oc2ccccc2C(=O)O)n1` [CBK092218], 84.6%. Still for that read-out and setting: to `COC(=O)c1cccc(Oc2nc(OC)cc(OC)n2)c1` [CBK092219] belongs 66.1%. On the same count and under the same terms, to `COC(=O)c1ccc(Oc2nc(OC)cc(OC)n2)cc1` [CBK092221] belongs 113%; to `CC1(C)OC(NC2CC3CCC2C3)=NC1=O` (stereo not drawn) [CBK092237], 82.8%; to `CC[C@H]1CCCCN1C(=O)c1sc2ncccc2c1Cl` [CBK092276], 104%.

Consider `Cc1cnc2c(N3CCCC3)nc(-c3cccnc3)cn12` [CBK092277], for which the viability at 28.5 h, 10 µM is 98.5%. Same read-out and setting: to `COc1nn(C)c(CO)c1Cc1c(Cl)cccc1Cl` [CBK092285T] belongs 94.2%; to `COc1cc(-c2ccc3c(c2)COC2(CCCNC2)O3)cc(OC)c1OC` (stereo not drawn) [CBK092299], 93%; to `CCOC(=O)c1cnc(SC)nc1NCCc1c[nH]c2cc(F)ccc12` [CBK092315], 96%. On to `O=C(NCc1csc(-c2ccccc2)n1)c1ccccc1OC(F)F` [CBK092332], for which the viability at 28.5 h, 10 µM was determined as 95%.

In the case of `CC(=O)[C@H]1C[C@@H](CC(=O)NCc2csc(-c3ccccc3)n2)C1(C)C` [CBK092335], the viability at 28.5 h, 10 µM amounted to 109%. The same measure, in the same setting: to `O=C(NCc1csc(-c2ccccc2)n1)C(F)(F)F` [CBK092340] belongs 102%. For `O=C(CCC(F)(F)F)NCc1csc(-c2ccccc2)n1` [CBK092342], the viability at 28.5 h, 10 µM is 91%. The same measure, in the same setting: to `O=C(NCc1csc(-c2ccccc2)n1)C1CC=CCC1` (stereo not drawn) [CBK092348] belongs 94.4%.

The series is the same for the next values; noted with them: human, hela cells, % viability, bulk resorufin, single well.
Regarding `COc1ccccc1C1OC(=O)CC1C(=O)N1CCC(C(C)=O)(c2ccccc2)CC1` (stereo not drawn) [CBK091324], the viability at 28.5 h, 10 µM amounted to 104%. The same measure, in the same setting: to `CC(=O)C1(c2ccccc2)CCN(C(=O)CNS(=O)(=O)c2ccc(C)cc2)CC1` [CBK091328] belongs 92.5%; to `N#CC1(c2ccccc2)CCN(C(=O)c2ccc([N+](=O)[O-])o2)CC1` [CBK091389], 95.7%; to `CC(=O)[C@H]1C[C@@H](CC(=O)N2CCC(C#N)(c3ccccc3)CC2)C1(C)C` [CBK091393], 91.5%. The same measure, in the same setting: to `N#CC1(c2ccccc2)CCN(C(=O)CCC(F)(F)F)CC1` [CBK091399] belongs 97.7%; to `CC(C)(C)OC(=O)NCCCCC(=O)N1CCC(C#N)(c2ccccc2)CC1` [CBK091401], 89.4%; to `CC1CC1C(=O)N1CCC(C#N)(c2ccccc2)CC1` (stereo not drawn) [CBK091402], 99%. `COc1ccc(-c2ccc3c(c2)OC2(CCNCC2)O3)c(OC)c1` [CBK091451]: the viability at 28.5 h, 10 µM is 93.2%. Same read-out and setting: to `COc1cc(C(=O)Nc2ccc3c(c2)COC2(CCNCC2)O3)cc(OC)c1OC` [CBK091531T] belongs 92.3%.

The viability is a read-out of living cells in per cent, often relative to untreated cells.
